Data: patent US12617831B2 (UNIVERSITE D'ANGERS, priority 2019, dated 2026)

Experiments:
[1] = tested on: ovariectomy-induced bone loss in mice; experiment: Trabecular bone strength, compression test of second lumbar vertebra, ovariectomized mice; type: in vivo; details: OVX mice, vs vehicle; GL-0001 25, GL-0007 25 and 100 nmoles/kg/day; zoledronic acid once 100 μg/kg
Protocol: At 16 weeks of age, ALZET osmotic pumps (model number 2006, Durect Corp., Cupertino, CA) filled with the below saline or peptide were implanted subcutaneously between the two scapula under general anesthesia in 32 mice. Successful filling of pumps was verified by weighting the pump before and after filling. At 20 weeks of age, ALZET osmotic pumps were replaced by similar pumps to ensure delivery for four new weeks. […] This dose and regimen of zoledronic acid was equivalent to the 5 mg infusion approved for the treatment of post-menopausal osteoporosis in humans. Compression experiments were performed on L2. Briefly, vertebral bodies were carefully dissected and glued with cyanoacrylate glue on a Plexiglas plate and then incubated in saline at 4° C. until use the next day. L2 vertebral bodies were compressed to failure at a displacement rate of 1 mm/min using an Instron 5942 device. Load and displacement of the upper plateau were recorded at a sampling rate of 100 Hz. Maximum load and stiffness were computerized from load-displacement curves.

[2] = tested on: ovariectomy-induced bone loss in mice; experiment: Bone matrix composition by FTIRI at the femur midshaft, ovariectomized mice; type: in vivo; details: OVX mice, cortical bone femur, vs vehicle
Protocol: At 16 weeks of age, ALZET osmotic pumps (model number 2006, Durect Corp., Cupertino, CA) filled with the below saline or peptide were implanted subcutaneously between the two scapula under general anesthesia in 32 mice. Successful filling of pumps was verified by weighting the pump before and after filling. At 20 weeks of age, ALZET osmotic pumps were replaced by similar pumps to ensure delivery for four new weeks. […] This dose and regimen of zoledronic acid was equivalent to the 5 mg infusion approved for the treatment of post-menopausal osteoporosis in humans. After three-point bending experiments, femurs were embedded undecalcified in pMMA at 4° C. One-micrometer cross-sectional sections of the midshaft femur were sandwiched between BaF2 optical windows and Fourier transform infrared imaging (FTIRI) assessment was performed in the posterior quadrant. FTIRI was performed with a vertex 70 spectrometer (Bruker, Ettlingen, Germany) interfaced with a Hyperion 3000 microscope and a focal plane array detector (64×64 pixels) covering a field of view of 180×180 μm. Nine field-of-view were stitched together to allow sufficient bone to be analyzed. Sections were scanned with a spectral resolution of 8 cm^-1 (spectral region 900-2000 cm^-1). Each spectrum was corrected for Mie scattering with the […]5 algorithm (kind gift of Prof Peter Gardner, University of Manchester, UK) prior to be subjected to pMMA subtraction. Evaluation of spectral images was done with a lab-made routine script in Matlab R2016b (The Mathworks, Natick, MA) as described in Aguado et al. (2017) Calcif Tissue Int 100:332-340. FTIR bone parameters ([…] (2012) Methods Mol Biol 816:517-525) calculated were: (1) phosphate/amide ratio (area of v1, v3 phosphate/area amide1); (2) acid phosphate content (intensity ratio 1127 cm^-1/1096 cm^-1) (Spevak et al. (2013) Calcif Tissue Int 92:418-428); (3) mineral crystallinity (intensity ratio 1030 cm^-1/1020 cm^-1), reflecting crystal size and perfection; […] (2001) J Bone Miner Res 16:893-900). For each of the compositional parameters, the mean and full width at half maximum of the pixel distribution (excluding the zero background values) were computed and represented as mean and heterogeneity.

Murine MC3T3-E1 cells = experiment: Collagen maturity assay in MC3T3-E1 cultures (Example 2); type: cell-based; details: compared with [D-Ala^2]GIP1-30NH2 and [Gly^2]GLP-2
Protocol: At confluence, the propagation medium was replaced by the differentiation medium containing αMEM supplemented with 5% FBS, 5% bovine calf serum, 100 U/mL penicillin, 100 μg/mL streptomycin, 50 μg/ml ascorbic acid and various concentrations of analogues. This day was considered as day 1. The differentiation medium was replenished every two days. […] Cultures were rinsed at least six times with milliQ water, fixed in absolute ethanol, scrapped off the culture dish and transferred onto BaF2 windows where they were air-dried. Integrity of the collagen extracellular matrix was verified by comparing the obtained Fourier transform infrared spectrum with those of commercial collagen. Spectral analysis was performed using a Bruker Vertex 70 spectrometer (Bruker optics, Ettlingen, Germany) interfaced with a Bruker Hyperion 3000 infrared microscope equipped with a standard single element Mercury Cadmium Telluride (MCT) detector. Infrared spectra were recorded at a resolution of 4 cm^−1, with an average of 32 scans in transmission mode. Background spectral images were collected under identical conditions from the same BaF2 windows at the beginning and end of each experiment to ensure instrument stability. At least 20 spectra were acquired for each condition and analyzed with a lab-made routine script in Matlab R2016b (The Mathworks, Natick, MA).

[3] = tested on: ovariectomy-induced bone loss in mice; experiment: Cortical bone strength, 3-point bending at the midshaft femur, ovariectomized mice; type: in vivo
Protocol: At 16 weeks of age, ALZET osmotic pumps (model number 2006, Durect Corp., Cupertino, CA) filled with the below saline or peptide were implanted subcutaneously between the two scapula under general anesthesia in 32 mice. Successful filling of pumps was verified by weighting the pump before and after filling. At 20 weeks of age, ALZET osmotic pumps were replaced by similar pumps to ensure delivery for four new weeks. […] This dose and regimen of zoledronic acid was equivalent to the 5 mg infusion approved for the treatment of post-menopausal osteoporosis in humans. At necropsy, femurs and second lumbar vertebras (L2) were cleaned of soft tissue and immediately frozen in a saline-soaked gauze at −20° C. Three-point-bending experiments were performed on femurs after thawing bones at 4° C. overnight. Femurs were loaded to failure in 3-point bending at 2 mm/min using a servohydraulic materials testing system (Instron 5942, Instron, Elancourt, France). The lower span length was of 10 mm. Femurs were oriented so the anterior quadrant was facing down and subjected to tensile loads. Load and displacement of the upper crosshead, which were digitally recorded at a sampling rate of 100 Hz, were measured using a 500 N load cell (Instron). Stiffness, ultimate load, yield load, post-yield displacement (PYD), and work-to-fracture were calculated from the load-displacement curves. PYD was defined as the displacement at failure minus the displacement at yield.

[4] = OVX mice, 100 nmoles/kg/day, 8 weeks, vs vehicle

## CC[C@H](C)[C@H](NC(=O)[C@H](CO)NC(=O)[C@H](CCSC)NC(=O)[C@H](CC(=O)O)NC(=O)[C@H](CO)NC(=O)CNC(=O)[C@H](Cc1ccccc1)NC(=O)[C@H](CO)NC(=O)CNC(=O)[C@H](CCC(=O)O)NC(=O)CNC(=O)[C@@H](N)Cc1c[nH]cn1)C(=O)N[C@@H](C)C(=O)N[C@@H](CC(C)C)C(=O)N[C@@H](CC(=O)O)C(=O)N[C@@H](CCCCN)C(=O)N[C@@H](CC(C)C)C(=O)N[C@@H](C)C(=O)N[C@@H](C)C(=O)N[C@@H](CCCNC(=N)N)C(=O)N[C@@H](CC(=O)O)C(=O)N[C@@H](Cc1ccccc1)C(=O)N[C@H](C(=O)N[C@@H](CC(N)=O)C(=O)N[C@@H](Cc1c[nH]c2ccccc12)C(=O)N[C@@H](CC(C)C)C(=O)N[C@@H](CC(C)C)C(=O)N[C@@H](CCC(N)=O)C(=O)N[C@H](C(=O)N[C@@H](CCCCN)C(=O)N[C@H](C(=O)N[C@H](C(=O)N[C@@H](CC(=O)O)C(=O)O)[C@@H](C)O)[C@@H](C)CC)[C@@H](C)O)C(C)C [GL-0001]
[1]
  bone stiffness, compression of second lumbar vertebra: significantly reduced
[2]; 25 nmoles/kg/day
  increase in acid phosphate content heterogeneity: 21%
  increase in collagen maturity heterogeneity: 28%
  increase in mean collagen maturity: 10%
Murine MC3T3-E1 cells
  potency versus native peptides, based on osteoclast formation in vitro and collagen maturity in vitro: better potency than each native peptide
[3]; OVX mice, 25 nmoles/kg/day, 8 weeks, vs vehicle
  increase in work-to-fracture: 37%
[3]; mouse, in vivo
  increase in post-yield displacement: 70%
  increase in ultimate displacement: 34%

## CC[C@H](C)[C@H](NC(=O)[C@H](CO)NC(=O)[C@H](Cc1ccccc1)NC(=O)[C@H](CC(=O)O)NC(=O)[C@H](CO)NC(=O)CNC(=O)[C@H](Cc1ccccc1)NC(=O)[C@H](CO)NC(=O)CNC(=O)[C@H](CCC(=O)O)NC(=O)CNC(=O)[C@@H](N)Cc1c[nH]cn1)C(=O)N[C@@H](C)C(=O)N[C@@H](CC(C)C)C(=O)N[C@@H](CC(=O)O)C(=O)N[C@@H](CCCCN)C(=O)N[C@@H](CC(C)C)C(=O)N[C@@H](C)C(=O)N[C@@H](C)C(=O)N[C@@H](CCCNC(=N)N)C(=O)N[C@@H](CC(=O)O)C(=O)N[C@@H](Cc1ccccc1)C(=O)N[C@H](C(=O)N[C@@H](CC(N)=O)C(=O)N[C@@H](Cc1c[nH]c2ccccc12)C(=O)N[C@@H](CC(C)C)C(=O)N[C@@H](CC(C)C)C(=O)N[C@@H](CCC(N)=O)C(=O)N[C@H](C(=O)N[C@@H](CCCCN)C(N)=O)[C@@H](C)O)C(C)C [GL-0007]
[1]
  bone stiffness, compression of second lumbar vertebra: significantly reduced
[2]; 100 nmoles/kg/day
  augmentation of acid phosphate content heterogeneity: 18%
Murine MC3T3-E1 cells
  potency versus native peptides, based on osteoclast formation in vitro and collagen maturity in vitro: better potency than each native peptide
[3]; [4]
  augmentation in work-to-fracture: 33%
  increase in post-yield displacement: 62%
  increase in ultimate displacement: 33%
